# From patent US9145434B2 (Boehringer Ingelheim International GmbH, priority 2012, dated 2015)
# Experiments:
# Assay type in all cases: physicochemical
# [1] = physical and chemical stability of the crystalline complex; conditions: under various environmental conditions and during the production of a medicament
# [2] = mechanical stability of the crystals (grinding); conditions: allows grinding of the crystals
# [3] = tendency to absorb moisture
smiles,measurement,setting,value
N#Cc1ccc([C@@H]2O[C@H](CO)[C@@H](O)[C@H](O)[C@H]2O)cc1Cc1ccc(C2CC2)cc1.O=C(O)[C@@H]1CCCN1 [crystalline complex],physical and chemical stability,[1],high physical and chemical stability
same,mechanical stability,[2],high mechanical stability
same,tendency to absorb moisture,[3],does not show a high tendency to absorb moisture
